Laboratory results as given in patent publication US20200158737A1, “METHODS OF MEASURING UBIQUITIN-LIKE MODIFICATIONS” (Regents of the University of Minnesota, priority 2018, published 2020).
Residues, ends and D or L forms follow the SMILES beside them. *: point of attachment. Cbz = O=C(OCc1ccccc1)*

How the values were obtained:
[1] = biological target: T1, bovine serum albumin (BSA) (Bos taurus, UniProt P02769); assay: Ninhydrin test with BSA standard to evaluate AcGG-NHS labeling efficiency
T1 construct: purchased VWR
T1 sequence (P02769 25-607): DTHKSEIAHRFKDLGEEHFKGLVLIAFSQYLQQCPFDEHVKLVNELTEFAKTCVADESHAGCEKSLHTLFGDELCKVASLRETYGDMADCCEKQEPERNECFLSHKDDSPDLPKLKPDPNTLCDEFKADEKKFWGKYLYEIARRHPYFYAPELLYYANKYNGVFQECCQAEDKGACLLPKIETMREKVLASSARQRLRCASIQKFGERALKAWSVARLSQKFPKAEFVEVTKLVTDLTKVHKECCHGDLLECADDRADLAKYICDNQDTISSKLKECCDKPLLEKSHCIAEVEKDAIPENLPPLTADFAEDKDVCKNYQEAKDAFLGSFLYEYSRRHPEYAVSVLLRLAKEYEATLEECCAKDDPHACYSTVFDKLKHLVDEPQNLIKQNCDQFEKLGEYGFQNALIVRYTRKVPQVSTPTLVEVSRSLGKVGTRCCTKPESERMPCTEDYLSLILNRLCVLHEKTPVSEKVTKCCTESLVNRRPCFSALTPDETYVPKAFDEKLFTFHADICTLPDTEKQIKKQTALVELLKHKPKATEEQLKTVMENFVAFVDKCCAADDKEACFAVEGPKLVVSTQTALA
Experimental: To test the amine labeling efficiency of AcGG-NHS, three groups of samples were prepared—Blank: 100 μL of 9 M urea/1×PBS, Control: 0.1 mg BSA (5 μL of 20 mg/mL BSA) and 95 μL of 9 M urea/1×PBS, Test: 0.1 mg BSA (5 μL of 20 mg/mL BSA) and 95 μL of 9 M urea/1×PBS. First, samples in each groups were reduced with a final concentration of 5 mM TCEP and alkylated with a final concentration of 5 mM iodoacetamide at room temperature with shaking in dark for 30 min. Then, samples in the Test group were derivatized with AcGG-NHS following the procedure described below. Each group was followed by a reaction with ⅕ the volume of Ninhydrin reagent solution (0.35 g ninhydrin in 100 mL EtOH) at 85° C. with gentle stirring for 5 min. Absorbance of each sample was measured at 577 nm using NanoDrop spectrophotometer (Fisher).
Ten μg of proteins were dried in a Speed-Vac and resuspended in 10 μL of 9 M urea/PBS with pH adjusted to ˜8.5. AcGG-NHS stock solution was prepared by dissolving AcGG-NHS in 50% ACN/50% H2O mixture at a concentration of 100 mg/mL. One μL of AcGG-NHS stock solution was added to each sample and the mixture was vortexed for 45 min. The labeling was repeated for another two times. The reaction was quenched with 5% hydroxylamine (pH=6.0, 1.5 M) for 15 min. Each sample was diluted 6× with PBS and proteins were digested with trypsin for overnight at 37° C. […]

[2] = tested on: ubiquitination sites in histone-enriched fractions of 293T cells; assay: IBAQ-Ub site-specific stoichiometric analysis of known Ub sites on acid-extracted histones from 293T cells treated with DMSO or MG132; format: cell-based, human
Experimental: 293T cells were treated with 5 μM MG132 or the equal volume of DMSO for 12 hours. Histone extraction was performed as described previously (D. Shechter, et al., Nat Protoc 2007, 2, 1445-1457). Briefly, the cells were harvested by trypsin digestion. The cell pellets were washed with cold PBS and then lysed in 0.5 mL Extraction Buffer (PBS+0.5% Triton X-100 (v/v)) with protease inhibitor cocktail. After centrifuge, the supernatant was discarded and the pellet was washed with Extraction Buffer again to remove residual supernatant solution in pellet. The pellet was re-suspended in 0.4 ml 0.4 N H2SO4 for acid extraction. After overnight incubation at 4° C., the supernatant was extracted and proteins were precipitated with a final concentration of 20% TCA (v/v), followed by cold acetone wash. The protein pellet was air dried and protein concentration was measured by the Bradford assay after solubilizing the pellet with water.
Ten μg of proteins were dried in a Speed-Vac and resuspended in 10 μL of 9 M urea/PBS with pH adjusted to ˜8.5. AcGG-NHS stock solution was prepared by dissolving AcGG-NHS in 50% ACN/50% H2O mixture at a concentration of 100 mg/mL. One μL of AcGG-NHS stock solution was added to each sample and the mixture was vortexed for 45 min. The labeling was repeated for another two times. The reaction was quenched with 5% hydroxylamine (pH=6.0, 1.5 M) for 15 min. Each sample was diluted 6× with PBS and proteins were digested with trypsin for overnight at 37° C. (enzyme-to-substrate ratio of 1:100 (w/w)). When a second digestion was needed, another protease (Glu-C or Asp-N) was added (enzyme to substrate ratio of 1:100 w/w) for overnight digestion at 37° C. Following digestion, peptides were desalted and then resuspended in 10 μL of 9M urea/PBS at a pH ˜8.5. Heavy Ac—NHS stock solution was prepared by dissolving heavy Ac—NHS in ACN at a concentration of 100 mg/mL. One μL of heavy Ac—NHS stock solution was added to each sample for 45-min labeling. The labeling was repeated for two more times and the reaction was quenched with 5% hydroxylamine (pH=6.0, 1.5 M) for 15 min. The peptides were desalted with stage tips (C18) prior to LCMS analysis (J. Rappsilber, et al., Nat Protoc 2007, 2, 1896-1906).
Mass spectrometry data were collected using an Orbitrap Fusion mass spectrometer (Thermo Scientific) with a Top-12 method. Samples were resolubilized in HPLC buffer A (0.1% formic acid in water, v/v) and injected onto a self-packed reversed-phase capillary HPLC column (15 cm×100 μm, ReproSil-Pur Basic C18, 2.5 μm, Dr. Maisch GmbH). Peptides were separated by a Proxeon Easy nLC 1000 Nano-UPLC system (Thermo Scientific) at a flow rate of 200 nL/min with a 56 min gradient of 7-32% HPLC buffer B (0.1% formic acid in acetonitrile, v/v). The Orbitrap Fusion mass spectrometer (Thermo Scientific) was operated in a positive polarity mode with ion transfer tube temp of 275° C. Precursor ions were acquired in Orbitrap with a resolution 60,000 at 200 m/z and a mass range of 380-1800 m/z. Dynamic exclusion was enabled with an exclusion duration of 15 s and a mass tolerance of ±25 ppm. Fragment ions were acquired in the linear ion trap with an isolation window of 1.6 m/z and high energy collisional dissociation (HCD) of 35%.
Mass spectra were processed with MaxQuant software (version 1.5.3.12) (J. Cox, M. Mann, Nat Biotechnol 2008, 26, 1367-1372). […]

[3] = sites quantified in both DMSO and MG132 treated samples, histone-enriched chromatin fractions of 293T cells

Structure (SMILES) | Ninhydrin reactivity on BSA after labeling ([1]; BSA after AcGG-NHS labeling, FIG. 9B-9C) | reactivity to derivatize amino groups ([1]; Ninhydrin test, BSA standard, absorbance at 577 nm) | abundance of histone H2B K117/K120 ubiquitination (Ub stoichiometry) ([2]; 293T cells, 5 μM MG132 12 hours, acid-extracted histones, stoichiometry 0.91% without MG132) | K48 polyubiquitin linkage stoichiometry on extracted histones ([2]; 293T cells, 5 μM MG132 12 hours, DMSO control 0.85%) | increase of K48 ubiquitination stoichiometry versus DMSO control ([2]; 293T cells, MG132 treatment, extracted histones) | sites with decreased ubiquitination upon treatment [2, 3] | sites with increased Ub abundance upon treatment [2, 3]
CC(=O)NCC(=O)NCC(=O)ON1C(=O)CCC1=O [AcGG-NHS, Acetyl glycylglycine-N-hydroxysuccinamide] (HELM PEPTIDE1{[ac].G.G.[O=C1CCC(=O)N1O[*:1]]}$$$$V2.0) | complete loss of Ninhydrin reactivity | high reactivity |  |  |  |  | 
CC(C)C[C@@H](C=O)NC(=O)[C@H](CC(C)C)NC(=O)[C@H](CC(C)C)NC(=O)OCc1ccccc1 [MG132] (Cbz-Leu-Leu-Leu-aldehyde) |  |  | below the detection limit | 2.93% | more than tripled | 27 % of the sites | 72 % of the sites
